Two molecules from patent US20240410907A1, “FLUORESCENT ION INDICATORS AND THEIR APPLICATIONS” (AAT Bioquest, Inc., priority 2023, published 2024) can be followed below.

SMILES strings stand for the structures.

Series [1] can be described thus: Sodium ion response, fluorescence intensity with 60 mM NaCl (Fmax) or without NaCl (F0). The note with it: 2.5 μM, Tris-HCl buffer pH 7, 60 mM NaCl (Fmax) vs no NaCl (F0), FIG. 5. Here is the method:
FIG. 5. Comparisons of Compound 8 and SBFI to sodium ion responses. SBFI (2.5 μM) and Compound 8 (2.5 μM) are added in Tris-HCl buffer (pH-7) with 60 mM NaCl (Fmax) or without NaCl (F0) and their fluorescence intensities are recorded. […] SBFI=Black column; Compound 8=Grey column.

A short description of series [2]: Absorption spectra in TRIS buffer (pH 7.0) in the presence of 100 mM NaCl. Conditions: 10 μM, TRIS buffer pH 7.0, 100 mM NaCl, FIG. 1. Type of series: physicochemical. Here is the method: FIG. 1. The absorption spectral comparison of SBFI and Compound 8. SBFI (10 μM) and Compound 8 (10 μM) are dissolved in TRIS buffer (pH 7.0). The absorption spectra are recorded in the presence of 100 mM NaCl. […] A longer absorption wavelength minimizes the background caused by naturally occurring biological substances.

Series [3] in a line: Excitation and fluorescence spectra in TRIS buffer (pH 7.0) in the presence of 100 mM NaCl. Format: physicochemical. Conditions: 2.5 μM, TRIS buffer pH 7.0, 100 mM NaCl, FIG. 3. The method, then:
FIG. 3. The spectral comparison of SBFI and Compound 8. SBFI (2.5 μM) and Compound 8 (2.5 μM) are dissolved in TRIS buffer (pH 7.0). The excitation and fluorescence spectra are recorded in the presence of 100 mM NaCl. […] The strong and sharp fluorescence emission peak is a critical characteristic required for multicolor analysis.

A short description of series [4]: Absorption spectra in TRIS buffer (pH 7.0) in the presence of 100 mM KCl. The note with it: 10 μM, TRIS buffer pH 7.0, 100 mM KCl, FIG. 2. Type of series: physicochemical. Here is the method: FIG. 2. The absorption spectral comparison of PBFI and Compound 12. PBFI (10 μM) and Compound 12 (10 μM) are dissolved in TRIS buffer (pH 7.0). The absorption spectra are recorded in the presence of 100 mM KCl. […] A longer absorption wavelength minimizes the background caused by naturally occurring biological substances.

Series [5] is described as follows: Excitation and fluorescence spectra in TRIS buffer (pH 7.0) in the presence of 100 mM KCl. Type of series: physicochemical. Conditions: 2.5 μM, TRIS buffer pH 7.0, 100 mM KCl, FIG. 4. The method, then:
FIG. 4. The spectral comparison of PBFI and Compound 12. PBFI (2.5 μM) and Compound 12 (2.5 μM) are dissolved in TRIS buffer (pH 7.0). The excitation and fluorescence spectra are recorded in the presence of 100 mM KCl. […] a critical characteristic required for multicolor analysis.

Series [6] can be described thus: Potassium ion response, fluorescence intensity with 60 mM KCl (Fmax) or without KCl (F0). The note with it: 2.5 μM, Tris-HCl buffer pH 7.0, 60 mM KCl (Fmax) vs no KCl (F0), FIG. 6. The method, then:
FIG. 6. Comparisons of Compound 12 and PBFI to potassium ion responses. PBFI (2.5 μM) and Compound 12 (2.5 μM) are added in Tris-HCl buffer (pH 7.0) with 60 mM KCl (Fmax) or without KCl (F0) and their fluorescence intensities are recorded. […] PBFI=Black column; Compound 12=Grey column.

As for `COc1ccccc1N1CCOCCOCCN(c2cc(C(=O)O)c(-c3c4cc(F)c(=O)cc-4oc4cc(O)c(F)cc34)cc2OC)CCOCC1` [Compound 8], the “sodium ion response compared with SBFI” value in series [1] is recorded as “much stronger sodium ion response than SBFI”. Further, the “absorption wavelength compared with SBFI” value in series [2] is on record as “much longer absorption wavelength than SBFI”. Also, the “fluorescence emission peak compared with SBFI” value in series [3] is “much stronger and sharper fluorescence emission peak”.
As to `COc1ccccc1N1CCOCCOCCN(c2cc(C(=O)O)c(-c3c4cc(F)c(=O)cc-4oc4cc(O)c(F)cc34)cc2OC)CCOCCOCC1` [Compound 12], in series [4], the “absorption wavelength compared with PBFI” value is listed as “much longer absorption wavelength than PBFI”. For the same molecule, the “fluorescence emission compared with PBFI” value in series [5] was “much stronger and sharper”. Also, the “potassium ion response compared with PBFI” value in series [6] is listed as “much stronger potassium ion response than PBFI”.
